Results: ChEMBL document CHEMBL1201862, “PubChem BioAssay data set” (2004)
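Growth conditions: 96-well plates. Treatment: test compound, 48 hours, 5 concentrations. Analysis: linear interpolation between bracketing concentrations; unreached endpoints set to highest concentration. Here, GI50 denotes the concentration required for 50% inhibition of growth.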 The source made the active and inactive calls. Cut-off read from the data, not from the text of the source: active = GI50 up to about 1.1 µM and inactive = higher.

How the values were obtained:
Assay in all cases: DTP human tumour cell line panel, 48 h
A498 = test system: A498
A549 = test system: A549
COLO 205 = test system: COLO 205
DU-145 = test system: DU-145
EKVX = test system: EKVX
HCC 2998 = test system: HCC 2998
HCT-15 = test system: HCT-15
HL-60 = test system: HL-60
IGROV-1 = test system: IGROV-1
KM12 = test system: KM12
MCF7 = test system: MCF7
NCI-H23 = test system: NCI-H23
OVCAR-4 = test system: OVCAR-4
OVCAR-5 = test system: OVCAR-5
SF-268 = test system: SF-268
SK-MEL-28 = test system: SK-MEL-28
SN12C = test system: SN12C
T47D = test system: T47D
TK-10 = test system: TK-10
UACC-62 = test system: UACC-62

SMILES	GI50 (A498)	GI50 (A549)	GI50 (COLO 205)	GI50 (DU-145)	GI50 (EKVX)	GI50 (HCC 2998)	GI50 (HCT-15)	GI50 (HL-60)	GI50 (IGROV-1)	GI50 (KM12)	GI50 (MCF7)	GI50 (NCI-H23)	GI50 (OVCAR-4)	GI50 (OVCAR-5)	GI50 (SF-268)	GI50 (SK-MEL-28)	GI50 (SN12C)	GI50 (T47D)	GI50 (TK-10)	GI50 (UACC-62)
CN(C)Cc1ccc(C(C)(C)C)cc1-c1cc(C(C)(C)C)ccc1CN(C)C	28.2 µM (inactive)	93.5 µM (inactive)	19.4 µM (inactive)	> 100 µM (inactive)	39.2 µM (inactive)	16 µM (inactive)	72.3 µM	86.9 µM (inactive)	> 100 µM (inactive)	34.3 µM (inactive)	37.6 µM (inactive)	77.4 µM (inactive)	53.7 µM (inactive)	> 100 µM (inactive)	> 100 µM (inactive)	33.3 µM (inactive)	22.2 µM (inactive)	48.2 µM (inactive)	> 100 µM (inactive)	> 100 µM (inactive)
N=C(N)N/N=C\c1c(-c2cccc([N+](=O)[O-])c2)nc2sc(Cl)cn12	27.4 µM (inactive)	2.84 µM (inactive)	1.93 µM (inactive)	2.48 µM (inactive)	3.15 µM (inactive)	2.31 µM (inactive)	4.07 µM	2 µM (inactive)	1.8 µM (inactive)	2.32 µM (inactive)	2.61 µM (inactive)	2.75 µM (inactive)	1.54 µM (inactive)	3.91 µM (inactive)	3.06 µM (inactive)	2.21 µM (inactive)	2.6 µM (inactive)	1.64 µM (inactive)	2.38 µM (inactive)	27.5 µM (inactive)
CCc1nc2c(c(N(C)C)c1C(=O)OC)CCc1ccccc1-2	20.2 µM (inactive)	31 µM (inactive)	18.7 µM (inactive)	1.5 µM (inactive)	25.9 µM (inactive)	24.6 µM (inactive)	32.5 µM	2.86 µM (inactive)	40.4 µM (inactive)	30.9 µM (inactive)	14.4 µM (inactive)	34.4 µM (inactive)	44.8 µM (inactive)	32.2 µM (inactive)	47.1 µM (inactive)	38.5 µM (inactive)	28.8 µM (inactive)	11 µM (inactive)	35.5 µM (inactive)	16.9 µM (inactive)
CCOC(CN(C)C(=O)Nc1ccc(Cl)c(Cl)c1)OCC	> 10 µM (inactive)	> 10 µM (inactive)	> 10 µM (inactive)	> 10 µM (inactive)	> 10 µM (inactive)	> 10 µM (inactive)	> 10 µM	> 10 µM (inactive)	> 10 µM (inactive)	> 10 µM (inactive)	> 10 µM (inactive)	> 10 µM (inactive)	> 10 µM (inactive)		> 10 µM (inactive)	> 10 µM (inactive)	> 10 µM (inactive)	> 10 µM (inactive)	> 10 µM (inactive)	> 10 µM (inactive)
CC1CNC(c2cccc(-c3nc(-c4cccc(C5=NC(C)CN5)c4)nc(N(C)C)n3)c2)=N1 (centres undefined)	2.05 µM (inactive)	2.69 µM (inactive)	1.2 µM (inactive)	2.09 µM (inactive)	2.23 µM (inactive)	1.13 µM (inactive)	8.34 µM	2.02 µM (inactive)	3.28 µM (inactive)	1.67 µM (inactive)	0.78 µM (active)	2.14 µM (inactive)	0.771 µM (active)	2.57 µM (inactive)	2.06 µM (inactive)	3.13 µM (inactive)	0.948 µM (active)	2.5 µM (inactive)	2.78 µM (inactive)	1.82 µM (inactive)
O=C(CCOS(=O)(=O)CF)N1CCN(C(=O)CCOS(=O)(=O)CF)CC1	> 100 µM (inactive)	59 µM (inactive)	> 80.7 µM (inactive)	35.9 µM (inactive)	> 100 µM (inactive)	> 100 µM (inactive)	> 100 µM	5.06 µM (inactive)	> 69.5 µM (inactive)	> 100 µM (inactive)	18.6 µM (inactive)	29.6 µM (inactive)	> 100 µM (inactive)	> 100 µM (inactive)	24.4 µM (inactive)	> 100 µM (inactive)	35.1 µM (inactive)	43.6 µM (inactive)	> 100 µM (inactive)	16.4 µM (inactive)
N=C(N)NS(=O)(=O)c1ccc(NCc2c3ccccc3nc3ccccc23)cc1	1.17 µM (inactive)	0.338 µM (active)	> 80.9 µM (inactive)	1.83 µM (inactive)	10.4 µM (inactive)	7.38 µM (inactive)	40.3 µM	0.0679 µM (active)	23.4 µM (inactive)	6.24 µM (inactive)	0.0566 µM (active)	1.09 µM (active)	39.5 µM (inactive)	33.3 µM (inactive)	0.679 µM (active)	47.3 µM (inactive)	0.637 µM (active)	1.16 µM (inactive)	64.1 µM (inactive)	1.1 µM (active)
CC(C)(C)c1ccc(C(C)(C)C)c(N2C(=O)C3ON=C(c4ccc([N+](=O)[O-])cc4)C3C2=O)c1 (centres undefined)	5.96 µM (inactive)	5.61 µM (inactive)	> 25 µM (inactive)	10.8 µM (inactive)	20.3 µM (inactive)	5.02 µM (inactive)	20.3 µM	> 25 µM (inactive)	4.5 µM (inactive)	> 25 µM (inactive)	22.8 µM (inactive)	> 25 µM (inactive)	8.57 µM (inactive)	> 25 µM (inactive)	13.7 µM (inactive)	> 25 µM (inactive)	> 25 µM (inactive)	> 25 µM (inactive)	> 25 µM (inactive)	17.8 µM (inactive)
CCN(CC)CCCNc1ncc(C)c2c1c1ccc3c(O)cccc3c1n2C	13.6 µM (inactive)	0.389 µM (active)	5.52 µM (inactive)	1.57 µM (inactive)	3.02 µM (inactive)	0.798 µM (active)	2.74 µM	0.603 µM (active)	1.96 µM (inactive)	1.52 µM (inactive)	0.191 µM (active)	1.8 µM (inactive)	1.66 µM (inactive)	5.57 µM (inactive)	2.5 µM (inactive)	9.82 µM (inactive)	2.7 µM (inactive)	17.9 µM (inactive)	10.5 µM (inactive)	18 µM (inactive)
O=c1cc(-c2ccccc2F)[nH]c2ccc(N3CCCC3)cc12	0.0215 µM (active)	0.0504 µM (active)	0.0557 µM (active)	0.0535 µM (active)	0.00138 µM (active)	0.00179 µM (active)	0.033 µM	> 100 µM (inactive)	0.792 µM (active)	0.0955 µM (active)	0.00745 µM (active)	0.00155 µM (active)	0.0269 µM (active)	0.1 µM (active)	0.0363 µM (active)	0.465 µM (active)	0.17 µM (active)	> 10 µM (inactive)	0.237 µM (active)	0.0185 µM (active)
